Test results: US20180000085A1, “USE OF PICOLINAMIDE COMPOUNDS WITH FUNGICIDAL ACTIVITY” (DOW AGROSCIENCES LLC, priority 2014, published 2018)

How the values were obtained:
Puccinia triticina = test: Wheat brown rust (PUCCRT) disease control on wheat seedlings; format: in vivo; set-up: key to PUCCRT 3DC, HV activity at 100 ppm (% control rating) / PUCCRT disease control, 3DC / PUCCRT 1DP disease control rating, HV activity / PUCCRT 3DC disease control rating, HV activity / PUCCRT 3DC, LV activity at 125.1 g/H (% Control rating) / PUCCRT 1DP, LV activity at 125.1 g/H (% Control rating) / PUCCRT 3DC disease control rating, LV activity at 125.1 g/H / PUCCRT 1DP disease control rating, LV activity at 125.1 g/H / PUCCRT 3DC disease control rating, HV activity at 100 ppm / PUCCRT 1DP disease control rating, HV activity at 100 ppm / HV activity at 100 ppm PUCCRT 3DC (disease control rating) / LV activity at 125.1 g/H PUCCRT 1DP (disease control rating) / LV activity at 125.1 g/H PUCCRT 3DC (disease control rating): A: > 80; B: ≤ 80; C: Not Tested; D: No Activity Observed in the Reported Assay; conditions: high volume application, 100 ppm; for PUCCRT 1DP disease control rating, HV activity at 100 ppm: 1 day protectant; for PUCCRT 3DC disease control rating, HV activity at 100 ppm: 3 day curative
Zymoseptoria tritici = test: Leaf blotch of wheat (SEPTTR) disease control on wheat seedlings; format: in vivo; set-up: key to SEPTTR 1DP, HV activity at 100 ppm (% control rating) / SEPTTR 3DC, HV activity at 100 ppm (% control rating) / SEPTTR disease control, 1DP / SEPTTR disease control, 3DC / SEPTTR 1DP disease control rating, HV activity / SEPTTR 3DC disease control rating, HV activity / SEPTTR 3DC, LV activity at 125.1 g/H (% Control rating) / SEPTTR 1DP, LV activity at 125.1 g/H (% Control rating) / SEPTTR 1DP disease control rating, LV activity at 125.1 g/H / SEPTTR 3DC disease control rating, LV activity at 125.1 g/H / SEPTTR 3DC disease control rating, HV activity at 100 ppm / SEPTTR 1DP disease control rating, HV activity at 100 ppm / HV activity at 100 ppm SEPTTR 3DC (disease control rating) / HV activity at 100 ppm SEPTTR 1DP (disease control rating) / LV activity at 125.1 g/H SEPTTR 1DP (disease control rating) / LV activity at 125.1 g/H SEPTTR 3DC (disease control rating): A: > 80; B: ≤ 80; C: Not Tested; D: No Activity Observed in the Reported Assay; conditions: high volume application, 100 ppm; for SEPTTR 1DP disease control rating, HV activity at 100 ppm: 1 day protectant; for SEPTTR 3DC disease control rating, HV activity at 100 ppm: 3 day curative

Row | Structure (SMILES) | PUCCRT 1DP disease control rating, HV activity at 100 ppm (Puccinia triticina) | PUCCRT 3DC disease control rating, HV activity at 100 ppm (Puccinia triticina) | SEPTTR 1DP disease control rating, HV activity at 100 ppm (Zymoseptoria tritici) | SEPTTR 3DC disease control rating, HV activity at 100 ppm (Zymoseptoria tritici)
1 | COc1ccnc(C(=O)N[C@@H](C)C(=O)O[C@@H](C)[C@H](OCC2CC2)C2CCCCC2)c1O [Cmpd 816] | A (> 80) | B (≤ 80) | B (≤ 80) | B (≤ 80)
2 | COc1ccnc(C(=O)NC(C)C(=O)OC(C)C(Oc2ccc(Cl)cc2Cl)c2ccccc2)c1O (stereo not drawn) [Cmpd 817] | A (> 80) | A (> 80) | A (> 80) | B (≤ 80)
3 | COc1ccnc(C(=O)NC(C)C(=O)OC(C)C(Oc2ccccc2)c2ccccc2)c1O (stereo not drawn) [Cmpd 818] | A (> 80) | D | A (> 80) | A (> 80)
4 | COc1ccnc(C(=O)NC(C)C(=O)OC(C)C(OCC(C)C)c2ccccc2)c1O (stereo not drawn) [Cmpd 819] | D | B (≤ 80) | B (≤ 80) | D
5 | COc1ccnc(C(=O)NC(C)C(=O)OC(C)C(OCC(C)C)c2ccccc2)c1O (stereo not drawn) [Cmpd 820] | A (> 80) | A (> 80) | A (> 80) | A (> 80)
6 | CCCOC(c1ccccc1)C(C)OC(=O)C(C)NC(=O)c1nccc(OC)c1O (stereo not drawn) [Cmpd 821] | A (> 80) | A (> 80) | B (≤ 80) | B (≤ 80)
7 | COc1ccnc(C(=O)NC(C)C(=O)OC(C)C(OC)c2ccccc2)c1O (stereo not drawn) [Cmpd 823] | B (≤ 80) | A (> 80) | D | B (≤ 80)
8 | COc1ccnc(C(=O)NC(C)C(=O)OC(C)C(OCC2CC2)c2ccccc2)c1O (stereo not drawn) [Cmpd 825] | A (> 80) | A (> 80) | B (≤ 80) | B (≤ 80)
9 | COc1ccnc(C(=O)NC(C)C(=O)OC(C)C(OCC2CC2)C23CC4CC(CC(C4)C2)C3)c1O (stereo not drawn) [Cmpd 827] | A (> 80) | D | B (≤ 80) | D
10 | COc1ccnc(C(=O)NC(C)C(=O)OC(C)C(OC)C23CC4CC(CC(C4)C2)C3)c1O (stereo not drawn) [Cmpd 829] | B (≤ 80) | D | D | D
11 | COc1ccnc(C(=O)NC(C)C(=O)OC(C)(C)C(Oc2ccccc2)C(C)C)c1O (stereo not drawn) [Cmpd 831] | B (≤ 80) | D | D | D
12 | COc1ccnc(C(=O)NC(C)C(=O)OC(C)C(Oc2ccccc2)c2ccc(-c3ccccc3)cc2)c1O (stereo not drawn) [Cmpd 833] | A (> 80) | B (≤ 80) | A (> 80) | B (≤ 80)
13 | COc1ccnc(C(=O)NC(C)C(=O)OC(C)(C)[C@H](Oc2ccccc2)C(C)C)c1O (stereo partly drawn) [Cmpd 835, (R)-2,4-dimethyl-3-phenoxypentan-2-yl 2-(3-hydroxy-4-methoxypicolinamido)propanoate] | A (> 80) | A (> 80) | D | B (≤ 80)
14 | COc1ccnc(C(=O)NC(C)C(=O)OC(C)C(Oc2ccccc2)C2CCCCC2)c1O (stereo not drawn) [Cmpd 836] | A (> 80) | A (> 80) | A (> 80) | A (> 80)
15 | COc1ccnc(C(=O)NC(C)C(=O)OC(C)C(Oc2ccc(F)cc2)c2ccccc2)c1O (stereo not drawn) [Cmpd 837] | A (> 80) | A (> 80) | A (> 80) | A (> 80)
16 | COc1ccnc(C(=O)N[C@@H](C)C(=O)O[C@@H](C)[C@H](Oc2cccc(F)c2)C2CCCC2)c1O [Cmpd 839] | A (> 80) | A (> 80) | B (≤ 80) | B (≤ 80)
17 | COc1ccnc(C(=O)N[C@@H](C)C(=O)O[C@@H](C)[C@H](Oc2ccc(F)cc2)C2CCCC2)c1O [Cmpd 840] | A (> 80) | A (> 80) | B (≤ 80) | A (> 80)
18 | COc1ccnc(C(=O)N[C@@H](C)C(=O)O[C@@H](C)[C@H](Oc2cccc(Cl)c2)C2CCCC2)c1O [Cmpd 841, (S)-(1R,2S)-1-(3-chlorophenoxy)-1-cyclopentylpropan-2-yl-2-(3-hydroxy-4-methoxypicolinamido)propanoate] | A (> 80) | A (> 80) | A (> 80) | A (> 80)
19 | COc1ccnc(C(=O)N[C@@H](C)C(=O)O[C@@H](C)[C@H](Oc2ccc(Cl)cc2)C2CCCC2)c1O [Cmpd 842] | A (> 80) | A (> 80) | A (> 80) | B (≤ 80)
20 | COc1ccnc(C(=O)N[C@@H](C)C(=O)O[C@@H](C)[C@H](Oc2ccc(C)cc2Cl)C2CCCC2)c1O [Cmpd 843, (S)-(1R,2S)-1-(2-chloro-4-methylphenoxy)-1-cyclopentylpropan-2-yl-2-(3-hydroxy-4-methoxypicolinamido)propanoate] | D | D | D | B (≤ 80)
21 | COc1ccnc(C(=O)N[C@@H](C)C(=O)O[C@@H](C)[C@H](OCC(C)C)C2CCCC2)c1O [Cmpd 844] | A (> 80) | A (> 80) | B (≤ 80) | A (> 80)
